Laboratory results: US20220204473A1, “COMPOUND AS IRAK INHIBITOR” (SHANGHAI MEIYUE BIOTECH DEVELOPMENT CO., LTD., priority 2018, published 2022)

Experiments:
human IRAK4 = target: T1, human IRAK4 (Homo sapiens, UniProt Q9NWZ3); test: IRAK4 MSA (Mobility-Shift Assay) at Km ATP; type: biochemical; settings: GST-IRAK4 1 nM, ATP 37 μM (Km); read-out: IC50 for inhibiting human IRAK4 kinase
T1 construct: purchased Cama (so in the source)
T1 sequence (Q9NWZ3 1-460): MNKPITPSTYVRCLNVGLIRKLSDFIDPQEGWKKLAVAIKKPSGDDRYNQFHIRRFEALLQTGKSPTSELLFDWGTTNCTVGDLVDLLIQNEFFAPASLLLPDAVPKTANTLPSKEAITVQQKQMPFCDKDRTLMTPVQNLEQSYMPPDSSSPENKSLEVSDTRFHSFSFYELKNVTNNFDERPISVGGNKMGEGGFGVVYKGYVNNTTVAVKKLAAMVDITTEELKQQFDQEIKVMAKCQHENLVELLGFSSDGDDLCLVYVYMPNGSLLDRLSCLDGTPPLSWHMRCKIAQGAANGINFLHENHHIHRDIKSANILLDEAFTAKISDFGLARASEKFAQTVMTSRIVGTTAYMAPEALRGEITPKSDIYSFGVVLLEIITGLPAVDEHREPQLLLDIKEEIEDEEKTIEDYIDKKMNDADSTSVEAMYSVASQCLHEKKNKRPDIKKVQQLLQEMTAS
Protocol: A recombinant fusion protein of N-terminal GST (glutathione-S-transferase) and human IRAK4 was used as enzyme (GST-IRAK4, kinase IRAK4 (Cama)) at a final concentration of 1 nM; ATP (Sigma) was at a final concentration of 37 μM; the substrates used for the kinase reaction were a 5-FAM (5-carboxyfluorescein)-labeled polypeptide (5-FAM-[…]-COOH) and a substrate peptide FAM-P8 (GL Biochem) at final concentrations of […].
In this assay, 500 μM solutions of the compounds were prepared in 100% DMSO, and serially 4-fold diluted to the 10th concentration gradient with 100% DMSO, followed by a 10-fold dilution in the compound buffer (50 mM HEPES. pH 7.5, 0.00015% Brij-35) to give intermediate dilutions of the compounds at a final concentration of 10 μM-0.04 nM containing 10% DMSO respectively, 5 μL of the dilutions were transferred into a black 384-well plate respectively.
IRAK4 was diluted to 2.5 nM in the kinase buffer (50 mM HEPES, pH 7.5, 0.00015% Brij-35, 2 mM DTT). 10 μL of the IRAK4 dilution was transferred to the 384-well plate and co-incubated with the compound for 10-15 min.
The substrate and ATP were diluted to 12.5 μM and 92.5 μM with reaction buffer (50 mM HEPES, pH 7.5, 0.00015% Brij-35, 10 mM MgCl2), respectively. 10 μL of the dilutions were transferred to a 384-well plate and incubated at 28° C. for 1 h respectively. The reaction was terminated by adding 25 μL of 50 mM EDTA to the 384-well plate.
The inhibition rates of IRAK4 by the compounds were calculated by measuring the rate of phosphorylated substrate using a Caliper EZ Reader (PerkinElmer) and the IC50 values were calculated by XL-fit software.

[1] = system: TNF-α release in LPS-induced Balb/c female mice; test: Inhibition of TNF-α release in LPS-induced Balb/c female mice; type: in vivo, mouse; parameters: concentration or dose not given beside the values; settings: oral gavage 5 h before LPS induction, serum 1.5 h after stimulation
Protocol: In the normal control groups, the animals received an intraperitoneal injection of normal saline (10 mL/kg) and in the model groups, the animals received LPS stimulation (Sigma CAT #L2630, i.p., 10 mL/kg, 0.2 mg/kg). During the assay, to the test compounds, DMSO, Solutol and 10 mM PBS were sequentially added to prepare a solution or suspension of required concentration for administration. For the vehicle, DMSO, Solutol and 10 mM PBS were mixed in a volume ratio of 5:15:80. In each of the groups, the animals were administered through oral gavage (10 mL/kg) 5 h before LPS (or saline) stimulation at predetermined doses, and euthanized with CO2 at 1.5 h after the stimulation for cardiac blood collection. The whole blood was not anticoagulated, incubated in wet ice for 1.5 h, and centrifuged at 2000×g at 4° C. for 10 min to separate the serum. The serum was frozen at −80° C. for TNF-α assay. Quantification of the TNF-α was done with TNF-α ELISA kit according to the manufacturer's instruction.

[2] = Stability in rat liver microsomes; type: in vitro ADME; settings: for half-life at 1 μM: pH 7.4, ∞ = no obvious metabolism found during assay, read-out: Stability test in liver microsomes t1/2, Rat; for Stability test in liver microsomes t1/2, Rat: ∞ = no obvious metabolism found during assay
Protocol: (§1) 1. Preparation of buffer C:
(§2) Buffer A: 1.0 L of 0.1 M monopotassium phosphate buffer (containing 1.0 mM EDTA);
(§3) Buffer A: 1.0 L of 0.1 M dipotassium phosphate buffer (containing 1.0 mM EDTA);
(§4) Buffer C: Buffer A was added to 700 mL of buffer B until pH reached 7.4.
(§5) The test compound and the reference were separately dissolved in DMSO to give 10 mM stocks.
(§6) 500 μM solution: 10 μL of 10 mM stock solution was added to 190 μL of acetonitrile;
(§7) 1.5 μM dosing solution (in liver microsome solution):
(§8) 18.75 μL of 20 mg/mL liver microsomes were added to 479.75 μL of buffer C, followed by 1.5 μL of 500 μM solution. The mixture was gently shaken to mix well.
(§9) NADPH was weighed, to which an appropriate amount of buffer C was added to prepare a 6 mM NADPH solution.
(§10) 5. 30 μL of 1.5 μM dosing solution was added to wells of a 96-well plate set for different time points (0 min, 5 min, 15 min, 30 min, 45 min) in duplicate.
(§11) 6. Preparation of 0 min samples: 135 μL of acetonitrile (containing internal standard) was added to the 0 min wells, followed by 15 μL of 6 mM NADPH solution.
(§12) 7. The 96-well plate containing 1.5 μM dosing solution and NADPH solution were preheated for 5 min in a water bath at 37° C.
(§13) 8. 15 μL of pre-heated 6 mM NADPH solution was added to wells set for 5 min, 15 min, 30 min and 45 min to start the reaction.
(§14) 9. At time points of 5 min, 15 min, 30 min and 45 min, the reaction was terminated by adding 135 μL of acetonitrile (containing internal standard). The mixtures were vortexed for 10 min and centrifuged at 5594×g for 15 min (Thermo Multifuge×3R).
(§15) 10. 50 μL of the supernatant was transferred to wells of a 96-well plate containing 50 μL of water. The samples were mixed and finally subjected to LC-MS/MS analysis.

[3] = Stability in human liver microsomes; type: in vitro ADME; settings: for half-life at 1 μM: pH 7.4, ∞ = no obvious metabolism found during assay, read-out: Stability test in liver microsomes t1/2, Human
Protocol: as §1, §2, §3, §4, §5, §6, §7, §8, §9, §10, §11, §12, §13, §14, §15

[4] = Stability in mouse liver microsomes; type: in vitro ADME; settings: for half-life at 1 μM: pH 7.4, ∞ = no obvious metabolism found during assay, read-out: Stability test in liver microsomes t1/2, Mouse
Protocol: as §1, §2, §3, §4, §5, §6, §7, §8, §9, §10, §11, §12, §13, §14, §15

[5] = ∞ = no obvious metabolism found during assay

SMILES | IC50 (human IRAK4) | half-life at 1 μM [2] | half-life at 1 μM [3] | half-life at 1 μM [4] | Stability test in liver microsomes t1/2, Mouse [4, 5] | Stability test in liver microsomes t1/2, Human [3, 5] | Inhibition rate of TNF-α [1] | Stability test in liver microsomes t1/2, Rat [2]
COc1cc2nn([C@H]3CC[C@H](O)CC3)cc2cc1NC(=O)c1cccc(C(F)(F)F)n1 [MY-004-127-1] | 5.3 nM | 5.1 h | 12.8 h | 768 h | – | – | 89.29% | –
COc1cc2nn([C@H]3CC[C@@](C)(O)CC3)cc2cc1NC(=O)c1cccc(C(F)(F)F)n1 [MY-004-126-2] | 1 nM | – | 428 h | 13.4 h | – | – | 94.11% | ∞

Continued, in another order:

IC50 (human IRAK4) | half-life at 1 μM [2] | half-life at 1 μM [3] | half-life at 1 μM [4] | Stability test in liver microsomes t1/2, Mouse [4, 5] | Stability test in liver microsomes t1/2, Human [3, 5] | SMILES | Inhibition rate of TNF-α [1] | Stability test in liver microsomes t1/2, Rat [2]
2.7 nM | 6.63 h | 7.82 h | 5.9 h | – | – | COc1cc2nn([C@H]3CC[C@](C)(O)CC3)cc2cc1NC(=O)c1cccc(C(F)(F)F)n1 [MY-004-126-1] | 94.43% | –
4.2 nM | – | 53.9 h | – | ∞ | – | CC(C)(O)c1cc2nn([C@H]3CC[C@](C)(O)CC3)cc2cc1NC(=O)c1cccc(C(C)(F)F)n1 [MY-004-165] | 88.99% | ∞
1.9 nM | 4.17 h | – | 4.72 h | – | ∞ | CN(C)c1cc2nn([C@H]3CC[C@H](O)CC3)cc2cc1NC(=O)c1cccc(C(F)(F)F)n1 [MY-004-153] | 88.42% | –
6.8 nM | 4.87 h | 35.6 h | 9.4 h | – | – | CN(C)c1cc2nn([C@H]3C[C@H](C(C)(C)O)C3)cc2cc1NC(=O)c1cccc(C(F)(F)F)n1 [MY-004-089] | 91.27% | –
